# Laboratory results: patent US10582709B2, “Butyrolactones as herbicides” (FMC Corporation, priority 2015, dated 2020)
# What was measured:
# Assay type in all cases: in vivo
# kochia (Kochia scoparia) [1] = assay: Test A postemergence, kochia; conditions: visual rating after approx. 10 d, 0 to 100 scale, 0 no effect, 100 complete control
# Excerpt: (§1) Seeds of plant species selected from barnyardgrass (Echinochloa crus-galli), crabgrass (large crabgrass, Digitaria sanguinalis), kochia (Kochia scoparia), ragweed (common ragweed, Ambrosia elatior), morningglory (Ipomoea spp.), velvetleaf (Abutilon theophrasti), ryegrass, Italian (Italian ryegrass, Lolium multiflorum), foxtail, giant (giant foxtail, Setaria faberii), wheat (Triticum aestivum), corn (Zea mays), and pigweed (Amaranthus retroflexus), were planted into a blend of loam soil and sand and treated preemergence with a directed soil spray using test chemicals formulated in a non-phytotoxic solvent mixture which included a surfactant. At the same time, plants selected from these crop and weed species and also blackgrass (Alopecurus myosuroides), and galium (catchweed bedstraw, Galium aparine), were planted in pots containing the same blend of loam soil and sand and treated with postemergence applications of test chemicals formulated in the same manner. Plants ranged in height from 2 to 10 cm and were in the one- to two-leaf stage for the postemergence treatment. Treated plants and untreated controls were maintained in a greenhouse for approximately 10 d, after which time all treated plants were compared to untreated controls and visually evaluated for injury. Plant response ratings, summarized in Table A, are based on a 0 to 100 scale where 0 is no effect and 100 is complete control. A dash (-) response means no test result.
# [2] = tested on: sedge, umbrella (small-flower umbrella sedge, Cyperus difformis); assay: Test B flooded paddy test, umbrella sedge; conditions: applied to paddy water at 2-leaf stage, 13 to 15 d, scale 0 no effect to 100 complete control
# Method: (§2) Plant species in the flooded paddy test selected from rice (Oryza sativa), sedge, umbrella (small-flower umbrella sedge, Cyperus difformis), ducksalad (Heteranthera limosa), and barnyardgrass (Echinochloa crus-galli) were grown to the 2-leaf stage for testing. At time of treatment, test pots were flooded to 3 cm above the soil surface, treated by application of test compounds directly to the paddy water, and then maintained at that water depth for the duration of the test. Treated plants and controls were maintained in a greenhouse for 13 to 15 d, after which time all species were compared to controls and visually evaluated. Plant response ratings, summarized in Table B, are based on a scale of 0 to 100 where 0 is no effect and 100 is complete control. A dash (-) response means no test result.
# [3] = tested on: foxtail, giant (giant foxtail, Setaria faberii); assay: Test A postemergence, giant foxtail; conditions: visual rating after approx. 10 d, 0 to 100 scale, 0 no effect, 100 complete control
# Excerpt: as §1
# [4] = tested on: ducksalad (Heteranthera limosa); assay: Test B flooded paddy test, ducksalad; conditions: applied to paddy water at 2-leaf stage, 13 to 15 d, scale 0 no effect to 100 complete control
# Method: as §2
# [5] = tested on: pigweed (Amaranthus retroflexus); assay: Test A postemergence, pigweed; conditions: visual rating after approx. 10 d, 0 to 100 scale, 0 no effect, 100 complete control
# Excerpt: as §1
# [6] = tested on: barnyardgrass (Echinochloa crus-galli); assay: Test A preemergence, barnyardgrass; conditions: visual rating after approx. 10 d, 0 to 100 scale, 0 no effect, 100 complete control
# Excerpt: as §1
# [7] = tested on: ryegrass, Italian (Italian ryegrass, Lolium multiflorum); assay: Test A preemergence, Italian ryegrass; conditions: visual rating after approx. 10 d, 0 to 100 scale, 0 no effect, 100 complete control
# Excerpt: as §1
# [8] = tested on: ragweed (common ragweed, Ambrosia elatior); assay: Test A preemergence, ragweed; conditions: visual rating after approx. 10 d, 0 to 100 scale, 0 no effect, 100 complete control
# Excerpt: as §1
# [9] = tested on: barnyardgrass (Echinochloa crus-galli); assay: Test B flooded paddy test, barnyardgrass; conditions: applied to paddy water at 2-leaf stage, 13 to 15 d, scale 0 no effect to 100 complete control
# Method: as §2
# [10] = tested on: blackgrass (Alopecurus myosuroides); assay: Test A postemergence, blackgrass; conditions: visual rating after approx. 10 d, 0 to 100 scale, 0 no effect, 100 complete control
# Excerpt: as §1
# [11] = tested on: ryegrass, Italian (Italian ryegrass, Lolium multiflorum); assay: Test A postemergence, Italian ryegrass; conditions: visual rating after approx. 10 d, 0 to 100 scale, 0 no effect, 100 complete control
# Excerpt: as §1
# [12] = tested on: barnyardgrass (Echinochloa crus-galli); assay: Test A postemergence, barnyardgrass; conditions: visual rating after approx. 10 d, 0 to 100 scale, 0 no effect, 100 complete control
# Excerpt: as §1
# [13] = tested on: ragweed (common ragweed, Ambrosia elatior); assay: Test A postemergence, ragweed; conditions: visual rating after approx. 10 d, 0 to 100 scale, 0 no effect, 100 complete control
# Excerpt: as §1
# [14] = tested on: pigweed (Amaranthus retroflexus); assay: Test A preemergence, pigweed; conditions: visual rating after approx. 10 d, 0 to 100 scale, 0 no effect, 100 complete control
# Excerpt: as §1
# corn (Zea mays) = assay: Test A postemergence, corn; conditions: visual rating after approx. 10 d, 0 to 100 scale, 0 no effect, 100 complete control
# Excerpt: as §1
# rice (Oryza sativa) = assay: Test B flooded paddy test, rice; conditions: applied to paddy water at 2-leaf stage, 13 to 15 d, scale 0 no effect to 100 complete control
# Method: as §2
# [15] = tested on: foxtail, giant (giant foxtail, Setaria faberii); assay: Test A preemergence, giant foxtail; conditions: visual rating after approx. 10 d, 0 to 100 scale, 0 no effect, 100 complete control
# Excerpt: as §1
# [16] = tested on: galium (catchweed bedstraw, Galium aparine); assay: Test A postemergence, galium; conditions: visual rating after approx. 10 d, 0 to 100 scale, 0 no effect, 100 complete control
# Excerpt: as §1
# [17] = tested on: wheat (Triticum aestivum); assay: Test A postemergence, wheat; conditions: visual rating after approx. 10 d, 0 to 100 scale, 0 no effect, 100 complete control
# Excerpt: as §1
# kochia (Kochia scoparia) [18] = assay: Test A preemergence, kochia; conditions: visual rating after approx. 10 d, 0 to 100 scale, 0 no effect, 100 complete control
# Excerpt: as §1
SMILES,"Plant response rating, Kochia (kochia (Kochia scoparia) [1]; 125 g ai/ha)","Plant response rating, Kochia (kochia (Kochia scoparia) [1]; 500 g ai/ha)","Plant response rating, Foxtail, Giant ([3]; 125 g ai/ha)","Plant response rating, Foxtail, Giant ([3]; 500 g ai/ha)","Plant response rating, Pigweed ([5]; 125 g ai/ha)","Plant response rating, Pigweed ([5]; 500 g ai/ha)","Plant response rating, Barnyardgrass ([6]; 125 g ai/ha)","Plant response rating, Barnyardgrass ([6]; 500 g ai/ha)","Plant response rating, Ryegrass, Italian ([7]; 125 g ai/ha)","Plant response rating, Ryegrass, Italian ([7]; 500 g ai/ha)","Plant response rating, Ragweed ([8]; 125 g ai/ha)","Plant response rating, Ragweed ([8]; 500 g ai/ha)","Plant response rating, Blackgrass ([10]; 125 g ai/ha)","Plant response rating, Blackgrass ([10]; 500 g ai/ha)","Plant response rating, Ryegrass, Italian ([11]; 125 g ai/ha)","Plant response rating, Ryegrass, Italian ([11]; 500 g ai/ha)","Plant response rating, Barnyardgrass ([12]; 125 g ai/ha)","Plant response rating, Barnyardgrass ([12]; 500 g ai/ha)","Plant response rating, Ragweed ([13]; 125 g ai/ha)","Plant response rating, Ragweed ([13]; 500 g ai/ha)",also measured
O=C(Nc1cccc(F)c1C(F)(F)F)C1C(=O)OCC1c1ccc(C(F)(F)F)cc1 (racemic) [Compound 10],0,0,30,70,0,0,0,0,0,0,0,0,0,0,0,0,0,0,0,0,"Plant response rating, Flood, Sedge, Umbrella ([2]; 250 g ai/ha): 0; Plant response rating, Flood, Sedge, Umbrella ([2]; 1000 g ai/ha): 0; Plant response rating, Flood, Ducksalad ([4]; 250 g ai/ha): 20; Plant response rating, Flood, Ducksalad ([4]; 1000 g ai/ha): 25; Plant response rating, Flood, Barnyardgrass ([9]; 250 g ai/ha): 0; Plant response rating, Flood, Barnyardgrass ([9]; 1000 g ai/ha): 0; Plant response rating, Pigweed ([14]; 125 g ai/ha): 0; Plant response rating, Pigweed ([14]; 500 g ai/ha): 0; Plant response rating, Corn (corn (Zea mays); 125 g ai/ha): 0; Plant response rating, Corn (corn (Zea mays); 500 g ai/ha): 0; Plant response rating, Flood, Rice (rice (Oryza sativa); 250 g ai/ha): 0; Plant response rating, Flood, Rice (rice (Oryza sativa); 1000 g ai/ha): 0; Plant response rating, Foxtail, Giant ([15]; 125 g ai/ha): 40; Plant response rating, Foxtail, Giant ([15]; 500 g ai/ha): 50; Plant response rating, Galium ([16]; 125 g ai/ha): 0; Plant response rating, Galium ([16]; 500 g ai/ha): 0; Plant response rating, Wheat ([17]; 125 g ai/ha): 0; Plant response rating, Wheat ([17]; 500 g ai/ha): 0; Plant response rating, Kochia (kochia (Kochia scoparia) [18]; 125 g ai/ha): 0; Plant response rating, Kochia (kochia (Kochia scoparia) [18]; 500 g ai/ha): 0"
O=C(Nc1cccc(F)c1F)C1C(=O)OCC1c1ccc(C(F)(F)F)cc1 (racemic) [Compound 7],0,0,20,50,0,0,0,30,0,0,0,0,0,0,0,0,0,20,0,0,"Plant response rating, Flood, Sedge, Umbrella ([2]; 250 g ai/ha): 0; Plant response rating, Flood, Sedge, Umbrella ([2]; 1000 g ai/ha): 0; Plant response rating, Flood, Ducksalad ([4]; 250 g ai/ha): 30; Plant response rating, Flood, Ducksalad ([4]; 1000 g ai/ha): 40; Plant response rating, Flood, Barnyardgrass ([9]; 250 g ai/ha): 0; Plant response rating, Flood, Barnyardgrass ([9]; 1000 g ai/ha): 0; Plant response rating, Pigweed ([14]; 125 g ai/ha): 0; Plant response rating, Pigweed ([14]; 500 g ai/ha): 0; Plant response rating, Corn (corn (Zea mays); 125 g ai/ha): 0; Plant response rating, Corn (corn (Zea mays); 500 g ai/ha): 0; Plant response rating, Flood, Rice (rice (Oryza sativa); 250 g ai/ha): 0; Plant response rating, Flood, Rice (rice (Oryza sativa); 1000 g ai/ha): 0; Plant response rating, Foxtail, Giant ([15]; 125 g ai/ha): 30; Plant response rating, Foxtail, Giant ([15]; 500 g ai/ha): 80; Plant response rating, Galium ([16]; 125 g ai/ha): 0; Plant response rating, Galium ([16]; 500 g ai/ha): 0; Plant response rating, Wheat ([17]; 125 g ai/ha): 0; Plant response rating, Wheat ([17]; 500 g ai/ha): 0; Plant response rating, Kochia (kochia (Kochia scoparia) [18]; 125 g ai/ha): 0; Plant response rating, Kochia (kochia (Kochia scoparia) [18]; 500 g ai/ha): 0"
O=C(Nc1ccccc1C(F)(F)F)C1C(=O)OCC1c1ccc(C(F)(F)F)cc1 (racemic) [Compound 9],0,0,30,70,0,0,0,0,0,20,0,0,0,0,0,0,0,0,0,0,"Plant response rating, Flood, Sedge, Umbrella ([2]; 250 g ai/ha): 0; Plant response rating, Flood, Sedge, Umbrella ([2]; 1000 g ai/ha): 0; Plant response rating, Flood, Ducksalad ([4]; 250 g ai/ha): 30; Plant response rating, Flood, Ducksalad ([4]; 1000 g ai/ha): 30; Plant response rating, Flood, Barnyardgrass ([9]; 250 g ai/ha): 0; Plant response rating, Flood, Barnyardgrass ([9]; 1000 g ai/ha): 0; Plant response rating, Pigweed ([14]; 125 g ai/ha): 0; Plant response rating, Pigweed ([14]; 500 g ai/ha): 0; Plant response rating, Corn (corn (Zea mays); 125 g ai/ha): 0; Plant response rating, Corn (corn (Zea mays); 500 g ai/ha): 0; Plant response rating, Flood, Rice (rice (Oryza sativa); 250 g ai/ha): 0; Plant response rating, Flood, Rice (rice (Oryza sativa); 1000 g ai/ha): 0; Plant response rating, Foxtail, Giant ([15]; 125 g ai/ha): 30; Plant response rating, Foxtail, Giant ([15]; 500 g ai/ha): 80; Plant response rating, Galium ([16]; 125 g ai/ha): 0; Plant response rating, Galium ([16]; 500 g ai/ha): 0; Plant response rating, Wheat ([17]; 125 g ai/ha): 0; Plant response rating, Wheat ([17]; 500 g ai/ha): 0; Plant response rating, Kochia (kochia (Kochia scoparia) [18]; 125 g ai/ha): 0; Plant response rating, Kochia (kochia (Kochia scoparia) [18]; 500 g ai/ha): 20"
O=C(Nc1cccc(F)c1C(F)(F)F)C1C(=O)OCC1c1cccc(C(F)(F)F)c1 (racemic) [Compound 13],0,0,20,40,0,0,0,0,0,0,0,0,0,0,0,0,0,0,0,0,"Plant response rating, Flood, Sedge, Umbrella ([2]; 500 g ai/ha): 0; Plant response rating, Flood, Ducksalad ([4]; 500 g ai/ha): 0; Plant response rating, Flood, Barnyardgrass ([9]; 500 g ai/ha): 0; Plant response rating, Pigweed ([14]; 125 g ai/ha): 0; Plant response rating, Pigweed ([14]; 500 g ai/ha): 0; Plant response rating, Corn (corn (Zea mays); 125 g ai/ha): 0; Plant response rating, Corn (corn (Zea mays); 500 g ai/ha): 0; Plant response rating, Flood, Rice (rice (Oryza sativa); 500 g ai/ha): 0; Plant response rating, Foxtail, Giant ([15]; 125 g ai/ha): 40; Plant response rating, Foxtail, Giant ([15]; 500 g ai/ha): 70; Plant response rating, Galium ([16]; 125 g ai/ha): 0; Plant response rating, Galium ([16]; 500 g ai/ha): 0; Plant response rating, Wheat ([17]; 125 g ai/ha): 0; Plant response rating, Wheat ([17]; 500 g ai/ha): 0; Plant response rating, Kochia (kochia (Kochia scoparia) [18]; 125 g ai/ha): 0; Plant response rating, Kochia (kochia (Kochia scoparia) [18]; 500 g ai/ha): 0"
